In article PMC7044277 (Nature Communications, 2020):
Several values for one entry are separate records, joined by “and”; a condition that tells them apart may be missing. Equal values may be shown once.

Tests used:
DRD3 = DRD3 (Homo sapiens, UniProt P35462); experiment: β-arrestin2 recruitment (Tango); assay type: cell-based; details: DRD3, Tango
[1] = biological target: T1, DRD4 (D4.4 variant) wild-type (Homo sapiens, UniProt P21917); experiment: Radioligand competition binding, [3H]-N-methylspiperone
T1 sequence (P21917 1-419): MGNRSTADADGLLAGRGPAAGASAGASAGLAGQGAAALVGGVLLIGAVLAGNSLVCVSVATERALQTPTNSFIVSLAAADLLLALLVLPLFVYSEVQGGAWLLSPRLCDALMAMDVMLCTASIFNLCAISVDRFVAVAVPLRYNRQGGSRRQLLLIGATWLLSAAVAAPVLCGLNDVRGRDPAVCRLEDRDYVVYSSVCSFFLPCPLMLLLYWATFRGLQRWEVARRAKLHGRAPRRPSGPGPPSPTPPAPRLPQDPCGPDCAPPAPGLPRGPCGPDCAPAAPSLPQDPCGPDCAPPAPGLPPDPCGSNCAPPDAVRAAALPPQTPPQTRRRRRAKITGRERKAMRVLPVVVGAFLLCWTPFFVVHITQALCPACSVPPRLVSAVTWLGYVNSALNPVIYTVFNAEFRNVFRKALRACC

DRD2 F1103.28A = DRD2 F1103.28A (Homo sapiens, UniProt P14416, F110A); assay type: binding; parameters: expressed in transfected cells; host or cells: HEK293T (ATCC CRL-11268); details: DRD2 F1103.28A; read-out: Ki
DRD2 F1103.28A, sequence (P14416 whole entry F110A): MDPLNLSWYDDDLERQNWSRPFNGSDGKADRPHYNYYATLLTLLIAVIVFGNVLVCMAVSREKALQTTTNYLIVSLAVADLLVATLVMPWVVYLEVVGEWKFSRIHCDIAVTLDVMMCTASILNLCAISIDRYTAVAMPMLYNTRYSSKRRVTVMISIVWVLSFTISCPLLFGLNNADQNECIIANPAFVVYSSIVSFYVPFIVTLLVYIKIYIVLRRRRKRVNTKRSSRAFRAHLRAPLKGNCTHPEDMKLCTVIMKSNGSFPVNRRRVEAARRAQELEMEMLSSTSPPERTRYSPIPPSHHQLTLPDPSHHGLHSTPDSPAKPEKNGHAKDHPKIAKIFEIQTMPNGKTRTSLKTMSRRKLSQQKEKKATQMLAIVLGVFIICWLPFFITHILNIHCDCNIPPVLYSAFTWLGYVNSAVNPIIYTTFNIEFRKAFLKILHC

DRD4 (D4.4 variant) [2] = biological target: T2, DRD4 (D4.4 variant) (Homo sapiens, UniProt P21917); experiment: β-arrestin2 recruitment (Tango); assay type: cell-based; details: DRD4; Tango; read-out: EC50 ± SEM
T2 sequence (P21917 1-419): T1 sequence (P21917 1-419)

DRD2 (D2 long receptor) [3] = biological target: T3, DRD2 (D2 long receptor) (Homo sapiens, UniProt P14416); experiment: Gαi/o-mediated cAMP inhibition (GloSensor split-luciferase cAMP reporter), HEK293T; assay type: cell-based; details: for Response, Fig_S11b dose-response: individual replicates;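 for all read-outs here: compounds applied 15 min at room temperature, then luciferin plus 400 nM isoproterenol to raise cAMP through endogenous β2-adrenergic receptors, luminescence read 15 min later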
T3 sequence (P14416 whole entry): as the sequence (P14416 whole entry F110A) above, with A110F counted along it

[4] = biological target: DRD2 (D2 long receptor) wild-type (Homo sapiens, UniProt P14416); experiment: Radioligand competition binding, [3H]-N-methylspiperone, HEK293T membranes; details: DRD2; [3H]-methylspiperone (0.8-1.0 nM); read-out: Ki
DRD2 (D2 long receptor) wild-type, sequence (P14416 whole entry): as the sequence (P14416 whole entry F110A) above, with A110F counted along it

DRD2 (D2 long receptor) [5] = biological target: T3, DRD2 (D2 long receptor); experiment: β-arrestin2 recruitment (Tango), HTLA cells; assay type: cell-based; details: for Response, Fig_S11c dose-response: individual replicates
DRD3 wild-type = DRD3 wild-type (Homo sapiens, UniProt P35462); experiment: Radioligand competition binding, [3H]-N-methylspiperone
DRD3 wild-type, sequence (P35462 whole entry): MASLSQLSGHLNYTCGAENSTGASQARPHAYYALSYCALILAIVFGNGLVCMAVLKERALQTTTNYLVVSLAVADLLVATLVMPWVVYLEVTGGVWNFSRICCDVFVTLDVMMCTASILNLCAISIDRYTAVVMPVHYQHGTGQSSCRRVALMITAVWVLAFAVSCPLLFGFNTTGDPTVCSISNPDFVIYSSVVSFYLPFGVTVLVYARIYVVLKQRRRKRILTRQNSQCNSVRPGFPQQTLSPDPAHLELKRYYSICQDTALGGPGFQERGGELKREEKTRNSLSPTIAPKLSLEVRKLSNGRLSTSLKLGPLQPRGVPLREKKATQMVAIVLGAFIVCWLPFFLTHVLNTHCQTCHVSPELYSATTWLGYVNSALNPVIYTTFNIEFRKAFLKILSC

DRD4 (D4.4 variant) [6] = biological target: T2, DRD4 (D4.4 variant); experiment: Gαi/o-mediated cAMP inhibition (GloSensor); assay type: cell-based; details: DRD4; agonist, cAMP inhibition; read-out: EC50 ± SEM

DRD3, sequence (P35462 whole entry): as above

CC(NCC1(O)CCCCC1)c1cc2ccccc2o1.Cl (stereo not drawn) [O1LE6]
Emax relative to quinpirole response (DRD3): 32.40% | EC50 (DRD3; read-out: EC50 ± SEM): 2530 ± 290 nM | Ki ([1]; DRD4, [3H]-methylspiperone (0.8-1.0 nM), read-out: Ki): 5890 nM | pKi ± SEM ([1]; DRD4 wild-type): 5.23±0.05 | Ki (DRD2 F1103.28A): > 10000 nM | EC50 (DRD4 (D4.4 variant) [2]): > 10000 nM | EC50 (DRD2 (D2 long receptor) [3]; DRD2, agonist, Gαi/o-mediated cAMP inhibition, read-out: EC50 ± SEM): 33.1 ± 18.8 nM | Emax relative to quinpirole response (DRD2 (D2 long receptor) [3]; DRD2, cAMP inhibition): 91.90% | Response, Fig_S11b dose-response (DRD2 (D2 long receptor) [3]; Log[Drug] -5): 89.3204 and 91.1814 and 93.3649 and 89.4471 and 88.0921 and 76.1419 and 96.2317 and 89.795 and 84.5788 | Response, Fig_S11b dose-response (DRD2 (D2 long receptor) [3]; Log[Drug] -5.52): 91.5039 and 91.6528 and 82.6955 and 86.6619 and 92.27 and 73.2437 and 89.2098 and 91.9183 and 89.3603 | Response, Fig_S11b dose-response (DRD2 (D2 long receptor) [3]; Log[Drug] -6): 93.6874 and 86.8392 and 81.0827 and 85.4951 and 84.0648 and 76.6312 and 94.0081 and 90.9486 and 79.3124 | Response, Fig_S11b dose-response (DRD2 (D2 long receptor) [3]; Log[Drug] -6.52): 82.5466 and 82.8444 and 76.7653 and 79.6611 and 79.6234 and 70.5902 and 84.9299 and 83.4419 and 82.6896 | Response, Fig_S11b dose-response (DRD2 (D2 long receptor) [3]; Log[Drug] -7): 69.4705 and 74.0856 and 77.7579 and 57.4355 and 50.0583 and 54.3867 and 80.2821 and 76.3198 and 67.1078 | Response, Fig_S11b dose-response (DRD2 (D2 long receptor) [3]; Log[Drug] -7.52): 64.6321 and 55.65 and 60.3147 and 22.695 and 37.7317 and 15.9389 and 61.2396 and 56.2574 and 56.2742 | Response, Fig_S11b dose-response (DRD2 (D2 long receptor) [3]; Log[Drug] -8): 44.0874 and 48.1814 and 41.755 and 12.175 and 7.433 and 11.554 and 48.1991 and 55.9732 and 50.8406 | Response, Fig_S11b dose-response (DRD2 (D2 long receptor) [3]; Log[Drug] -8.52): 32.3511 and 30.5646 and 24.436 and 24.7087 and -0.0952 and 5.9082 and 29.5745 and 42.6986 and 35.9443 | Response, Fig_S11b dose-response (DRD2 (D2 long receptor) [3]; Log[Drug] -9): 34.212 and 32.0286 and 29.2744 and 20.4555 and 1.072 and 15.4496 and 33.7709 and 34.4062 and 30.9956 | Response, Fig_S11b dose-response (DRD2 (D2 long receptor) [3]; Log[Drug] -11): 20.5404 and 9.648 and 18.1596 and 0.62 | Response, Fig_S11b dose-response (DRD2 (D2 long receptor) [3]; Log[Drug] -11.52): 13.5185 and 18.481 and 17.1411 and 15.3743 and -1.1867 and 2.859 | Response, Fig_S11b dose-response (DRD2 (D2 long receptor) [3]; Log[Drug] -12): -3.8502 and -19.5316 and -15.1399 and -4.9694 and 6.341 and -2.4664 and 2.0891 and 0.1832 and -19.7287 | Ki [4]: > 10000 nM | Emax relative to quinpirole response (DRD2 (D2 long receptor) [5]; DRD2, Tango): 70.08% | EC50 (DRD2 (D2 long receptor) [5]; DRD2, β-arrestin2 recruitment (Tango), read-out: EC50 ± SEM): 797 ± 57.7 nM | response, Fig_S11c dose-response source data (DRD2 (D2 long receptor) [5]; Fig_S11c, Log[Drug] -5, replicate values): 73.3598 and 82.2115 and 60.0642 and 63.6209 and 63.3142 and 65.0045 and 51.1507 and 58.9513 and 48.4491 | Response, Fig_S11c dose-response (DRD2 (D2 long receptor) [5]; Log[Drug] -6.52): 30.014 | Response, Fig_S11c dose-response (DRD2 (D2 long receptor) [5]; Log[Drug] -7): 10.4893 and 10.462 and 11.7147 and 9.282 and 6.266 and 8.074 and 10.4045 and 10.5346 and 7.978 | Response, Fig_S11c dose-response (DRD2 (D2 long receptor) [5]; Log[Drug] -7.52): 6.009 and 6.371 and 5.905 and 4.934 and 4.227 and 4.993 and 4.682 and 6.374 and 4.32 | Response, Fig_S11c dose-response (DRD2 (D2 long receptor) [5]; Log[Drug] -8): 4.1038 and 4.071 and 3.602 and 3.942 and 4.272 and 4.026 and 4.857 and 4.849 and 4.688 | Response, Fig_S11c dose-response (DRD2 (D2 long receptor) [5]; Log[Drug] -8.52): 3.803 and 4.0098 and 4.032 and 4.312 and 4.259 and 4.357 and 4.07 and 4.763 and 3.775 | Response, Fig_S11c dose-response (DRD2 (D2 long receptor) [5]; Log[Drug] -9): 4.244 and 4.685 and 3.406 and 3.869 and 4.425 and 4.183 and 3.883 and 3.8713 and 3.512 | Response, Fig_S11c dose-response (DRD2 (D2 long receptor) [5]; Log[Drug] -9.52): 4.538 and 3.818 and 3.898 and 3.793 and 4.174 and 4.462 and 3.884 and 3.705 and 3.5 | Response, Fig_S11c dose-response (DRD2 (D2 long receptor) [5]; Log[Drug] -10): 3.12 and 5.224 and 4.08 and 4.167 and 4.261 and 4.387 and 3.865 and 3.579 and 4.318 | Response, Fig_S11c dose-response (DRD2 (D2 long receptor) [5]; Log[Drug] -10.52): 3.591 (2×) and 4.048 and 3.394 and 3.852 and 3.958 and 3.858 and 3.561 and 3.474 | Response, Fig_S11c dose-response (DRD2 (D2 long receptor) [5]; Log[Drug] -11): 5.996 and 3.267 and 3.43 and 3.872 and 3.92 and 4.064 and 4.092 and 3.609 and 4.397 | Response, Fig_S11c dose-response (DRD2 (D2 long receptor) [5]; Log[Drug] -11.52): 4.744 and 4.248 and 3.765 and 3.919 and 3.901 and 3.85 and 3.587 and 4.237 and 3.779 | Response, Fig_S11c dose-response (DRD2 (D2 long receptor) [5]; Log[Drug] -12): 4.068 (2×) and 3.901 and 3.393 and 4.0327 and 3.921 and 3.9 and 3.99 and 3.547 | Ki (DRD3 wild-type; DRD3, [3H]-methylspiperone (0.8-1.0 nM), read-out: Ki): 760 nM | pKi ± SEM (DRD3 wild-type; DRD3 wild-type): 6.12±0.17 | EC50 (DRD4 (D4.4 variant) [6]): > 10000 nM
